Patent US9238656B2, “Imidazo[4,5-b]pyridine derivatives as ALK and JAK modulators for the treatment of proliferative disorders” (priority 2012, dated 2016)
Counter-ions that a name gives are not always drawn. Like-named read-outs stand apart in the source and are kept apart here.

What was measured:
[1] = target: baculovirus-expressed JAK2 kinase (Homo sapiens, UniProt O60674); test: biochemical; conditions: read-out: JAK2 Potency
Protocol: Compounds were tested for their ability to inhibit the kinase activity of baculovirus-expressed JAK2 kinase using the time-resolved fluorescence (TRF) detection system. […] The plates were coated with 100 μL/well of 10 μg/mL Neutravidin (Pierce #31000, Rockford, Ill.) in TBS at 37° C. for 2 h, followed by 100 μL/well of 1 μg/mL 15-mer peptide substrate (biotinyl-amino-hexanoyl-[…]-amide, Infinity Biotech Research and Resource, Aston, Pa.) at 37° C. for 1 h. […] Enzyme (15 ng/mL JAK2) was added and the reaction was allowed to proceed at room temperature for 20 min. […] Inhibition data were analyzed using ActivityBase (IDBS, Guilford, UK). IC50 values were calculated by plotting percent inhibition versus log10 of the concentration of compound and fitting to the nonlinear regression sigmoidal dose-response (variable slope) equation in XLFit (IDBS, Guilford, UK).

[2] = target: baculovirus-expressed ALK (Homo sapiens, UniProt Q9UM73); test: ALK kinase inhibition, TRF/ELISA; format: biochemical; conditions: read-out: ALK Potency
Sequence of baculovirus-expressed ALK (Q9UM73 19-1620): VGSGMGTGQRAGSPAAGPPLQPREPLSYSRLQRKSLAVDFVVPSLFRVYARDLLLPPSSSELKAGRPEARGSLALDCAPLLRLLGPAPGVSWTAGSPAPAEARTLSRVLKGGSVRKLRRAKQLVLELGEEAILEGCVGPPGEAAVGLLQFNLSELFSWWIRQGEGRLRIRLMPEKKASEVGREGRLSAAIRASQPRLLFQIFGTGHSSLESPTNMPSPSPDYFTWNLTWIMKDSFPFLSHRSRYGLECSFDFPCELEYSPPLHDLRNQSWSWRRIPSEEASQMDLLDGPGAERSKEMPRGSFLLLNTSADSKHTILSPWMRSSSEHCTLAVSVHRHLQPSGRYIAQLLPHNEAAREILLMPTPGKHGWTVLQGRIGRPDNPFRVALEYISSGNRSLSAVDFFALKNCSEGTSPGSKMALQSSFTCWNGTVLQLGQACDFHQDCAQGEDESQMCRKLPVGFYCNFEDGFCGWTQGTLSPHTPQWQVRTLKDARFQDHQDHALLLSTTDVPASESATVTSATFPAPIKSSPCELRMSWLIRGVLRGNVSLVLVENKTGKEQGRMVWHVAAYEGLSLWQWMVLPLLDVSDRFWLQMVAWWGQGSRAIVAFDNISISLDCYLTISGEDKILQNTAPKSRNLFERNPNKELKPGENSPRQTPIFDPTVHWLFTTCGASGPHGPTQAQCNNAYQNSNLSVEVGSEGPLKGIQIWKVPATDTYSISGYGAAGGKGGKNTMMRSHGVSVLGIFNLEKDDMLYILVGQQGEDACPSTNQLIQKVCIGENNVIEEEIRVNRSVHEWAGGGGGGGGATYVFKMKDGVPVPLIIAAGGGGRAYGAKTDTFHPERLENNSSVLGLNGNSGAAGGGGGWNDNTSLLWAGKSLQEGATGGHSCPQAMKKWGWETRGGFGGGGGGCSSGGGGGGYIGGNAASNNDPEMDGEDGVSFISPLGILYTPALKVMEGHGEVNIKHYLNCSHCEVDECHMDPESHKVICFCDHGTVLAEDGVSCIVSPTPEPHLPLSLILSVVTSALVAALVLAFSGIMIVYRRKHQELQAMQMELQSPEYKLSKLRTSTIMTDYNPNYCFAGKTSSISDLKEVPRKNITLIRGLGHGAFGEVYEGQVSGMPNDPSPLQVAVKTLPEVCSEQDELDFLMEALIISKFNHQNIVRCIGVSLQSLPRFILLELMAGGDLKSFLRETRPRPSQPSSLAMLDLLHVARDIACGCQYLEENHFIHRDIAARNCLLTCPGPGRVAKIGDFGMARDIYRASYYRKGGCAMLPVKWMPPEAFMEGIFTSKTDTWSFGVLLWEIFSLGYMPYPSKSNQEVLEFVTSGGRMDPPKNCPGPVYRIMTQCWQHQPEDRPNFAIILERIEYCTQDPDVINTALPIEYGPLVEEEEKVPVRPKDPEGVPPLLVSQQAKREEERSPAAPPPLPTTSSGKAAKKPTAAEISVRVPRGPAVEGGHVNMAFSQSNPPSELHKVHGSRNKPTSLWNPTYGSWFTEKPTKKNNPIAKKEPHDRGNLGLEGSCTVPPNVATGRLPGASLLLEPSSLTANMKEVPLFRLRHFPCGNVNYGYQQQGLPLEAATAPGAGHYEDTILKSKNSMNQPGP
Protocol: Briefly, each 96-well plate was coated with 100 μL/well of 10 μg/mL substrate (GST-PLC-γ) in Tris-buffered saline (TBS). […] The reaction was initiated by adding enzyme (30 ng/mL ALK) and was allowed to proceed at 37° C. for 15 minutes. Detection of the phosphorylated product was performed by adding 100 μL/well of Eu-N1 labeled PT66 antibody (Perkin Elmer #AD0041). […] Data analysis was performed using ActivityBase (IDBS, Guilford, UK). IC50 values were calculated by plotting percent inhibition versus log10 of the concentration of compound and fitting to the nonlinear regression sigmoidal dose-response (variable slope) equation in XLFit (IDBS, Guilford, UK).

Sequence of baculovirus-expressed JAK2 kinase (O60674 whole entry): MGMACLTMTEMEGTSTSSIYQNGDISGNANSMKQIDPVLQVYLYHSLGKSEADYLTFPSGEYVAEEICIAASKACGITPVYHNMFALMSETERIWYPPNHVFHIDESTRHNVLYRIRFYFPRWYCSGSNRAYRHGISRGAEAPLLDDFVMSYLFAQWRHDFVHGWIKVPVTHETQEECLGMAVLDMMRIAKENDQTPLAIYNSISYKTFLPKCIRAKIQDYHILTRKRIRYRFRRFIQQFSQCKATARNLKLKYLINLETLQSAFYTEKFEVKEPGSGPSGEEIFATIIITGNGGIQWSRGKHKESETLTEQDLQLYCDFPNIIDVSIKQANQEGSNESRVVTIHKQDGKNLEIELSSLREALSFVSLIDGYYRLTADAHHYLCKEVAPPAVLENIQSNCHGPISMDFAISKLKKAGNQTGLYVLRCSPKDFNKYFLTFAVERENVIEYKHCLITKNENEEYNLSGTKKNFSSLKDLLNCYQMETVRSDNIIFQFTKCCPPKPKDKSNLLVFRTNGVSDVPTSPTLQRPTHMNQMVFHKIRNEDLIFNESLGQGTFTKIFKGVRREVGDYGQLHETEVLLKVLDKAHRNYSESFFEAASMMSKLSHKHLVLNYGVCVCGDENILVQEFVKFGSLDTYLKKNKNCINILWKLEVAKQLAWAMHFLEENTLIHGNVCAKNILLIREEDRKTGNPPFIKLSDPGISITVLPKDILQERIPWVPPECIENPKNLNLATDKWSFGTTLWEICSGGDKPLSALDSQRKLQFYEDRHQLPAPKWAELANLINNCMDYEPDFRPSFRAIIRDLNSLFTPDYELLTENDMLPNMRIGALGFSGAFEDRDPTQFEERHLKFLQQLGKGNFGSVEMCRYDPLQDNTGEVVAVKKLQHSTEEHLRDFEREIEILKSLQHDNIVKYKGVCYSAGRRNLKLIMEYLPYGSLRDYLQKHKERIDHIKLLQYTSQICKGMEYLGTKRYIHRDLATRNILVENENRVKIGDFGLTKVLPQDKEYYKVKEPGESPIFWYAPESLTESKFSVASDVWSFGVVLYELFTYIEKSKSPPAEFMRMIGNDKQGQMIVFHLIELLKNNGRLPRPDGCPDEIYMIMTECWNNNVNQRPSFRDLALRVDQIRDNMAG

| Compound | IC50 [2] | IC50 ([1]; 0.2 μM ATP) | IC50 [1] |
| --- | --- | --- | --- |
| 4-{2-[7-((1R,2R,3S,4S)-3-Carbamoyl-bicyclo[2.2.1]hept-5-en-2-ylamino)-6-chloro-3H-imidazo[4,5-b]pyridine-2-yl}-5-methoxy-phenyl]-piperidinej-1-carboxylic acid tert-butyl ester [Compound XXIX] |  |  | 1000 to 10000 nM |
| NC(=O)[C@H]1[C@@H](Nc2c(Cl)cnc3[nH]c(-c4cccc(N5CCOCC5)c4)nc23)[C@@H]2C=C[C@H]1C2 [Compound XXV, (1R,2R,3S,4S)-3-[6-Chloro-2-(3-morpholin-4-yl-phenyl)-3H-imidazo[4,5-b]pyridine-7-ylamino]-bicyclo[2.2.1]hept-5-ene-2-carboxylic acid amide] |  | 100 to 1000 nM |  |
| Cn1cc(-c2nc3c(N[C@H]4[C@@H](C(N)=O)[C@@H]5C=C[C@H]4C5)c(Cl)cnc3[nH]2)cn1 [Compound VIII, (1S,2S,3R,4R)-3-[6-Chloro-2-(1-methyl-1H-pyrazol-4-yl)-3H-imidazo[4,5-b]pyridine-7-ylamino]-bicyclo[2.2.1]hept-5-ene-2-carboxylic acid amide] |  | < 100 nM |  |
| NC(=O)[C@@H]1[C@H](Nc2c(Cl)cnc3[nH]c(-c4cnn(C5CCNCC5)c4)nc23)[C@H]2C=C[C@@H]1C2 [Compound LVII, (1S,2S,3R,4R)-3-[6-Chloro-2-(1-piperidin-4-yl-1H-pyrazol-4-yl)-3H-imidazo[4,5-b]pyridine-7-ylamino]-bicyclo[2.2.1]hept-5-ene-2-carboxylic acid amide] |  | < 100 nM |  |
| NC(=O)[C@@H]1[C@H](Nc2c(Cl)cnc3[nH]c(-c4ccc(N5CCOCC5)cc4)nc23)[C@H]2C=C[C@@H]1C2 [Compound IV, (1S,2S,3R,4R)-3-[6-Chloro-2-(4-morpholin-4-yl-phenyl)-3H-imidazo[4,5-b]pyridine-7-ylamino]-bicyclo[2.2.1]hept-5-ene-2-carboxylic acid amide] |  | < 100 nM |  |
| CN1CCN(c2ccc(-c3nc4c(N[C@H]5[C@@H](C(N)=O)[C@@H]6C=C[C@H]5C6)c(Cl)cnc4[nH]3)cc2)CC1 [Compound X, (1S,2S,3R,4R)-3-{6-Chloro-2-[4-(4-methyl-piperazin-1-yl)-phenyl]-3H-imidazo[4,5-b]pyridine-7-ylamino}-bicyclo[2.2.1]hept-5-ene-2-carboxylic acid amide trifluoroacetic acid salt] |  | < 100 nM |  |
| COc1cc(N2CCN(C)CC2)ccc1-c1nc2c(N[C@H]3[C@@H](C(N)=O)[C@@H]4C=C[C@H]3C4)c(Cl)cnc2[nH]1 [Compound XXI, (1S,2S,3R,4R)-3-{6-Chloro-2-[2-methoxy-4-(4-methyl-piperazin-1-yl)-phenyl]-3H-imidazo[4,5-b]pyridin-7-ylamino}-bicyclo[2.2.1]hept-5-ene-2-carboxylic acid amide trifluoroacetic acid salt] |  | < 100 nM |  |
| COc1cc(N2CCN(C)CC2)ccc1-c1nc2c(N[C@@H]3[C@H](C(N)=O)[C@H]4C=C[C@@H]3C4)c(Cl)cnc2[nH]1 [Compound XXVIII, (1R,2R,3S,4S)-3-{6-Chloro-2-[2-methoxy-4-(4-methyl-piperazin-1-yl)-phenyl]-3H-imidazo[4,5-b]pyridin-7-ylamino}-bicyclo[2.2.1]hept-5-ene-2-carboxylic acid amide] |  | 100 to 1000 nM |  |
| COc1cc(N2CCC(N3CCN(C)CC3)CC2)ccc1-c1nc2c(N[C@H]3[C@@H](C(N)=O)[C@@H]4C=C[C@H]3C4)c(Cl)cnc2[nH]1 [Compound XXIII, (1S,2S,3R,4R)-3-(6-Chloro-2-{2-methoxy-4-[4-(4-methyl-piperazin-1-yl)-piperidin-1-yl]-phenyl}-3H-imidazo[4,5-b]pyridin-7-ylamino)-bicyclo[2.2.1]hept-5-ene-2-carboxylic acid amide] |  | < 100 nM |  |

Further lines, with some results ahead:

| IC50 [2] | IC50 ([1]; 0.2 μM ATP) | Compound | IC50 [1] |
| --- | --- | --- | --- |
| 100 to 1000 nM | < 100 nM | NC(=O)[C@@H]1[C@H](Nc2c(Cl)cnc3[nH]c(-c4ccc(F)cc4)nc23)[C@H]2C=C[C@@H]1C2 [Compound CXXIX, (1S,2S,3R,4R)-3-[6-Chloro-2-(4-fluoro-phenyl)-3H-imidazo[4,5-b]pyridin-7-ylamino]-bicyclo[2.2.1]hept-5-ene-2-carboxylic acid amide] |  |
| 100 to 1000 nM | < 100 nM | NC(=O)[C@@H]1[C@H](Nc2c(Br)cnc3[nH]c(-c4ccc(N5CCOCC5)c(Cl)c4)nc23)[C@H]2C=C[C@@H]1C2 [Compound CXXXV, (1S,2S,3R,4R)-3-[6-Bromo-2-(3-chloro-4-morpholin-4-yl-phenyl)-3H-imidazo[4,5-b]pyridin-7-ylamino]-bicyclo[2.2.1]hept-5-ene-2-carboxylic acid amide] |  |
| > 10000 nM | < 100 nM | CC12CCC(Nc3c(Cl)cnc4[nH]c(-c5ccc(N6CCOCC6)cc5)nc34)(CC1=O)C2(C)C (stereo not drawn) [Compound CXCVIII, 4-(6-chloro-2-(4-morpholinophenyl)-3H-imidazo[4,5-b]pyridin-7-ylamino)-1,7,7-trimethylbicyclo[2.2.1]heptan-2-one] |  |
|  | < 100 nM | NC(=O)[C@@H]1[C@H](Nc2c(Cl)cnc3[nH]c(-c4cccc(N5CCOCC5)c4)nc23)[C@H]2C=C[C@@H]1C2 [Compound VII, (1S,2S,3R,4R)-3-[6-Chloro-2-(3-morpholin-4-yl-phenyl)-3H-imidazo[4,5-b]pyridine-7-ylamino]-bicyclo[2.2.1]hept-5-ene-2-carboxylic acid amide] |  |
| 100 to 1000 nM | < 100 nM | NC(=O)COc1ccc(-c2nc3c(N[C@H]4[C@@H](C(N)=O)[C@@H]5C=C[C@H]4C5)c(Cl)cnc3[nH]2)cc1 [Compound CCXL, (1S,2S,3R,4R)-3-(2-(4-(2-amino-2-oxoethoxy)phenyl)-6-chloro-3H-imidazo[4,5-b]pyridin-7-ylamino)bicyclo[2.2.1]hept-5-ene-2-carboxamide] |  |
| < 100 nM | < 100 nM | CC(=O)N1CCN(Cc2ccc(-c3nc4c(N[C@H]5[C@@H](C(N)=O)[C@@H]6C=C[C@H]5C6)c(Br)cnc4[nH]3)cc2)CC1 [Compound CLVI, (1S,2S,3R,4R)-3-{2-[4-(4-Acetyl-piperazin-1-ylmethyl)-phenyl]-6-bromo-3H-imidazo[4,5-b]pyridin-7-ylamino}-bicyclo[2.2.1]hept-5-ene-2-carboxylic acid amide] |  |
| 100 to 1000 nM | < 100 nM | N#Cc1ccc(-c2nc3c(N[C@H]4[C@@H](C(N)=O)[C@@H]5C=C[C@H]4C5)c(Br)cnc3[nH]2)cc1 [Compound CXLVII, (1S,2S,3R,4R)-3-[6-Bromo-2-(4-cyano-phenyl)-3H-imidazo[4,5-b]pyridin-7-ylamino]-bicyclo[2.2.1]hept-5-ene-2-carboxylic acid amide] |  |
| 100 to 1000 nM | < 100 nM | NC(=O)[C@@H]1[C@H](Nc2c(Cl)cnc3[nH]c(-c4cccc(Cl)c4)nc23)[C@H]2C=C[C@@H]1C2 [Compound CXL, (1S,2S,3R,4R)-3-[6-Chloro-2-(3-chloro-phenyl)-3H-imidazo[4,5-b]pyridin-7-ylamino]-bicyclo[2.2.1]hept-5-ene-2-carboxylic acid amide] |  |
| < 100 nM | < 100 nM | NC(=O)[C@@H]1[C@H](Nc2c(Cl)cnc3[nH]c(-c4ccc(CN5CCOCC5)cc4)nc23)[C@H]2C=C[C@@H]1C2 [Compound III, (1S,2S,3R,4R)-3-[6-Chloro-2-(4-morpholin-4-ylmethyl-phenyl)-3H-imidazo[4,5-b]pyridine-7-ylamino]-bicyclo[2.2.1]hept-5-ene-2-carboxylic acid amide-trifluoroacetate salt] |  |
|  | < 100 nM | COc1ccccc1-c1nc2c(N[C@H]3[C@@H](C(N)=O)[C@@H]4C=C[C@H]3C4)c(Cl)cnc2[nH]1 [Compound IX, (1S,2S,3R,4R)-3-[6-Chloro-2-(2-methoxy-phenyl)-3H-imidazo[4,5-b]pyridine-7-ylamino]-bicyclo[2.2.1]hept-5-ene-2-carboxylic acid amide] |  |
|  | < 100 nM | COc1cccc(-c2nc3c(N[C@H]4[C@@H](C(N)=O)[C@@H]5C=C[C@H]4C5)c(Cl)cnc3[nH]2)c1 [Compound V, (1S,2S,3R,4R)-3-[6-Chloro-2-(3-methoxy-phenyl)-3H-imidazo[4,5-b]pyridin-7-ylamino]-bicyclo[2.2.1]hept-5-ene-2-carboxylic acid amide] |  |
|  | < 100 nM | COc1ccc(-c2nc3c(N[C@H]4[C@@H](C(N)=O)[C@@H]5C=C[C@H]4C5)c(Cl)cnc3[nH]2)cc1 [Compound VI, (1S,2S,3R,4R)-3-[6-Chloro-2-(4-methoxy-phenyl)-3H-imidazo[4,5-b]pyridine-7-ylamino]-bicyclo[2.2.1]hept-5-ene-2-carboxylic acid amide] |  |
|  | < 100 nM | CN1CCN(c2ccc(-c3nc4c(N[C@@H]5[C@H](C(N)=O)[C@H]6C=C[C@@H]5C6)c(Cl)cnc4[nH]3)cc2)CC1 [Compound XXVI, (1R,2R,3S,4S)-3-{6-Chloro-2-[4-(4-methyl-piperazin-1-yl)-phenyl]-3H-imidazo[4,5-b]pyridine-7-ylamino}-bicyclo[2.2.1]hept-5-ene-2-carboxylic acid amide] |  |
